{
  "source": "patent US20230310459A1",
  "about": "“NEUROACTIVE STEROIDS AND THEIR METHODS OF USE” (Sage Therapeutics, Inc., priority 2017, published 2023)",
  "format_in_all_cases": "in vivo, human",
  "key": {"[1]": {"tested_on": "Subjects with Major Depressive Disorder", "test": "Phase 2 open-label study (Part A): HAM-D, MADRS, HAM-A efficacy", "procedure": "(§1) In this multicenter, open-label, Phase 2 clinical trial, subjects were administered 30 mg Compound 1 on Days 1-14 and assessed through Day 28. Reductions in depressive and anxiety symptoms were assessed by the Hamilton Rating Scales for Depression and Anxiety (HAM-D and HAM-A), and the Montgomery-Asberg Depression Rating Scale (MADRS). Safety and tolerability were assessed via standard safety parameters. Pharmacokinetic parameters were also evaluated.\nWritten informed consent was provided at screening and was required for enrollment. The diagnosis of MDD was made using the Structured Clinical Interview for Diagnostic and Statistical Manual of Mental Disorders, Fifth Edition (DSM-5) Axis I Disorders (SCID-I), as performed by a qualified healthcare professional. Subjects were also screened with the 17-item Hamilton Rating Scale for Depression (HAM-D) to ensure symptom severity of at least 22. Hamilton Anxiety Rating Scale (HAM-A), Montgomery-Asberg Depression Rating Scale (MADRS), and Clinical Global Impression-Severity (CGI-S) scale were also administered. Using the 17-item HAM-D scale, a patient with a summed score of 17-23 was considered to have moderate depression; a summed score of ≥24 was considered severe depression. Patient histories and concomitant medication information were collected. The study population included subjects of both sexes, ages 18-65 years old, inclusive (inclusion/exclusion criteria below). Subjects remained as inpatients during the first 7 days of the study period and per Investigator's judgement thereafter. Subjects received the standard of care for adult inpatients diagnosed with MDD and were allowed to remain on a stable dose of psychotropic medications that were initiated at least 14 days prior to screening.\n(§2) Compound 1 was provided as a 6 mg/mL stock aqueous solution, which was further diluted with sterile water to achieve the selected dose that was administered as an oral solution. Participants received an open label 30 mg Compound 1 oral dose administered at 8:00 PM (+/−15 minutes) with food on Days 1 through 14. Subjects who experienced drug-related moderate or severe adverse events (as judged by the study investigators) while receiving the 30 mg dose of study drug were to have their dose reduced to 20 mg for the remaining treatment period. Any subjects not tolerating a 20 mg dose were to be terminated from the study. Vital signs were collected daily. Other study procedures and plasma collection for PK parameters were conducted at various times during the 14-day open label treatment period (procedure details in the Supplemental Appendix). Treatment follow-up was conducted on an outpatient basis and included a follow-up visit at 1 week (21+/−1 day) and at 2 weeks (28+/−1 day) after the last dose of the study drug.\n(§3) The primary endpoint of safety and tolerability of Compound 1 was assessed by the frequency and severity of adverse events, vital signs, changes in clinical laboratory measures, physical exams, electrocardiograms (ECGs), the Stanford Sleepiness Scale (SSS) score, and suicide ideation using the Columbia-Suicide Severity Rating Scale (C-SSRS, Supplemental Table 1). Secondary efficacy endpoints included: change from baseline in HAM-D total score, HAM-D response, defined as having a 50% or greater reduction from baseline in HAM-D total score, HAM-D remission, defined as having a HAM-D total score of ≤7, HAM-A change from baseline, and MADRS score change from baseline. The PK profile of Compound 1 was also determined from plasma samples.\nContinuous parameters were summarized as n, mean, and standard deviation, with categorical variables summarized as frequency counts and percentages. For HAM-D, HAM-A, and MADRS total scores, p-values for change from baseline values were calculated based on mixed effects model for repeated measures with visit as fixed effect, adjusting for baseline total score. […]"}, "[2]": {"tested_on": "Subjects with Major Depressive Disorder", "test": "Phase 2 open-label study (Part A): safety and tolerability (TEAEs, C-SSRS)", "conditions": "N=13", "procedure": "as §1, §2, §3\nSubjects were monitored for safety during the Treatment and Follow-up Periods including monitoring for adverse events/serious adverse events, routine clinical laboratory assessments, physical examination, vital signs, and ECG. During the Treatment Period, subjects received study drug as long as there are no dose-limiting safety/tolerability concerns"}, "[3]": {"tested_on": "Adult patients with moderate to severe Major Depressive Disorder (MDD)", "test": "Phase 2 double-blind placebo-controlled trial (Part B): HAM-D efficacy", "procedure": "(§4) In the randomized, double-blind, parallel-group, placebo-controlled trial, eligible patients (with a minimum total score of 22 on the Hamilton Rating Scale for Depression) were stratified based on use of antidepressant treatment (current/stable or not treated/withdrawn ≥30 days) and randomized in a 1:1 ratio to receive Compound 1 Capsules (30 mg) or matching placebo. All doses of study drug were administered at night with food. The study consisted of a 14-day treatment period, and a 4-week follow-up period. The mean HAM-D total scores at baseline were 25.2 for the Compound 1 group and 25.7 for the placebo group (overall range 22-33), representing patients with moderate to severe MDD. Approximately 90 percent of patients in each group completed the study."}, "[4]": {"tested_on": "Adult patients with moderate to severe Major Depressive Disorder (MDD)", "test": "Phase 2 double-blind placebo-controlled trial (Part B): safety and tolerability", "procedure": "as §4"}, "[5]": {"conditions": "Day 15, 30 mg once daily Days 1-14, N=13"}},
  "note": "“Also recorded” adds a separate entry of the source. Marks after values point to notes of the source that are not given here.",
  "data": [
    {"smiles": "C[C@@]1(O)CC[C@H]2[C@H](CC[C@@H]3[C@@H]2CC[C@]2(C)[C@@H](C(=O)Cn4cc(C#N)cn4)CC[C@@H]32)C1", "note": "[Compound 1, 1-(2-((3R,5R,8R,9R,10S,13S,14S,17S)-3-hydroxy-3,13-dimethylhexadecahydro-1H-cyclopenta[a]phenanthren-17-yl)-2-oxoethyl)-1H-pyrazole-4-carbonitrile]", "values": [
      {"measurement": "HAM-D remission rate (HAM-D total score ≤7)", "setting": "[1]; Day 15, end of the treatment period, N=13", "result": 62, "unit": "%"},
      {"measurement": "HAM-A total score, mean decrease from baseline", "setting": "[1]; [5]", "result": 15.5, "unit": "points"},
      {"measurement": "HAM-D total score, mean decrease from baseline", "setting": "[1]; [5]", "result": 19.9, "unit": "points"},
      {"measurement": "MADRS total score, mean decrease from baseline", "setting": "[1]; [5]", "result": 26.4, "unit": "points"},
      {"measurement": "HAM-A mean total score", "setting": "[1]; Day 15, 30 mg once daily Days 1-14, baseline 23.2, N=13", "result": 7.7},
      {"measurement": "MADRS mean total score", "setting": "[1]; Day 15, 30 mg once daily Days 1-14, baseline 36.9, N=13", "result": 10.5},
      {"measurement": "HAM-D mean total score", "setting": "[1]; Day 15, 30 mg oral solution once daily Days 1-14 with food, baseline 27.2, N=13", "result": 7.3},
      {"measurement": "HAM-D response rate", "setting": "[1]; Day 15, absence of antidepressants at enrollment (n=8)", "result": 75.0, "unit": "%"},
      {"measurement": "HAM-D response rate (total score reduced by at least 50%)", "setting": "[1]; Day 15, all 13 subjects", "result": 85, "unit": "%"},
      {"measurement": "HAM-D response rate", "setting": "[1]; Day 15, presence of antidepressants at enrollment (n=5)", "result": 100, "unit": "%"},
      {"measurement": "HAM-D response rate", "setting": "[1]; Day 28, absence of antidepressants at enrollment (n=8)", "result": 75, "unit": "%"},
      {"measurement": "HAM-D response rate", "setting": "[1]; Day 28, presence of antidepressants at enrollment (n=5)", "result": 80, "unit": "%"},
      {"measurement": "HAM-D remission rate (HAM-D total score ≤7)", "setting": "[1]; by Day 6, N=13", "result": 39, "unit": "%"},
      {"measurement": "time at which significant reductions in depressive symptoms (HAM-D) were seen", "setting": "[1]; p<0.05, 30 mg once daily", "result": "as early as Day 2"},
      {"measurement": "At least one TEAE, number of subjects", "setting": "[2]; 30 mg once daily Days 1-14", "result": 12, "unit": "subjects"},
      {"measurement": "tolerability", "setting": "[2]; 30 mg once daily Days 1-14", "result": "generally well tolerated"},
      {"measurement": "C-SSRS Subject engaged in non-suicidal self-injurious behavior, number of subjects who answered yes", "setting": "[2]; Day 2-15 (yes on Days 10-13)", "result": "1*"},
      {"measurement": "C-SSRS Aborted attempt, number of subjects who answered yes", "setting": "[2]; Day 2-15", "result": 0},
      {"measurement": "C-SSRS Actual attempt, number of subjects who answered yes", "setting": "[2]; Day 2-15", "result": 0},
      {"measurement": "C-SSRS Interrupted attempt, number of subjects who answered yes", "setting": "[2]; Day 2-15", "result": 0},
      {"measurement": "C-SSRS Preparatory acts or behavior, number of subjects who answered yes", "setting": "[2]; Day 2-15", "result": 0},
      {"measurement": "C-SSRS Suicidal behavior, number of subjects who answered yes", "setting": "[2]; Day 2-15", "result": 0},
      {"measurement": "Dizziness, number of subjects", "setting": "[2]", "result": 3, "unit": "subjects"},
      {"measurement": "Dizziness, percent of subjects", "setting": "[2]", "result": "(23.1%)"},
      {"measurement": "Drug-related TEAE, number of subjects", "setting": "[2]", "result": 11, "unit": "subjects"},
      {"measurement": "Drug-related TEAE, percent of subjects", "setting": "[2]", "result": "(84.6%)"},
      {"measurement": "Headache, number of subjects", "setting": "[2]", "result": 4, "unit": "subjects"},
      {"measurement": "Headache, percent of subjects", "setting": "[2]", "result": "(30.8%)"},
      {"measurement": "Myalgia, number of subjects", "setting": "[2]", "result": 3, "unit": "subjects"},
      {"measurement": "Myalgia, percent of subjects", "setting": "[2]", "result": "(23.1%)"},
      {"measurement": "Nasal Congestion, number of subjects", "setting": "[2]", "result": 2, "unit": "subjects"},
      {"measurement": "Nasal Congestion, percent of subjects", "setting": "[2]", "result": "(15.4%)"},
      {"measurement": "Sedation, number of subjects", "setting": "[2]", "result": 6, "unit": "subjects"},
      {"measurement": "Sedation, percent of subjects", "setting": "[2]", "result": "(46.2%)"},
      {"measurement": "Serious AE, number of subjects", "setting": "[2]", "result": 0, "unit": "subjects"},
      {"measurement": "Severe TEAE, number of subjects", "setting": "[2]", "result": 0, "unit": "subjects"},
      {"measurement": "Somnolence, number of subjects", "setting": "[2]", "result": 3, "unit": "subjects"},
      {"measurement": "Somnolence, percent of subjects", "setting": "[2]", "result": "(23.1%)"},
      {"measurement": "TEAE leading to death, number of subjects", "setting": "[2]", "result": 0, "unit": "subjects"},
      {"measurement": "TEAE leading to drug discontinuation, number of subjects", "setting": "[2]", "result": 0, "unit": "subjects"},
      {"measurement": "changes in clinical hematology, urinalysis, vital signs, or ECGs", "setting": "[2]", "result": "no clinically relevant changes"},
      {"measurement": "serious adverse events (SAEs) or discontinuations due to AEs", "setting": "[2]", "result": "no serious adverse events (SAEs) or discontinuations due to AEs"},
      {"measurement": "onset of improvement in HAM-D total score compared to placebo", "setting": "[3]; Capsules 30 mg at night with food", "result": "significant by the morning following the first dose (Day 2)"},
      {"measurement": "HAM-D total score, mean reduction from baseline", "setting": "[3]; Day 15, Capsules 30 mg at night with food for 14 days, baseline 25.2, placebo 10.7", "result": 17.6, "unit": "points"},
      {"measurement": "HAM-D total score, least squared mean difference from placebo", "setting": "[3]; Day 15, p<0.0001", "result": "−7.0"},
      {"measurement": "remission rate (HAM-D total score not more than 7)", "setting": "[3]; Day 15, placebo 23 percent, p=0.0005", "result": 64, "unit": "%"},
      {"measurement": "HAM-D total score, mean reduction from baseline", "setting": "[3]; Week 4, placebo 11.9, p=0.0243", "result": 15.6},
      {"measurement": "remission rate", "setting": "[3]; Week 4, placebo 28 percent, p=0.0221", "result": 52, "unit": "%"},
      {"measurement": "HAM-D total score, mean reduction from baseline", "setting": "[3]; Week 6, placebo 13.0, not statistically improved", "result": 15.0},
      {"measurement": "remission rate", "setting": "[3]; Week 6, placebo 33 percent, not significant", "result": 45, "unit": "%"},
      {"measurement": "deaths, serious or severe adverse events", "setting": "[4]; Capsules 30 mg for 14 days", "result": "no deaths, serious or severe adverse events"},
      {"measurement": "most common AEs", "setting": "[4]; Capsules 30 mg for 14 days", "result": "headache, dizziness, nausea, and somnolence"},
      {"measurement": "tolerability", "setting": "[4]; Capsules 30 mg for 14 days", "result": "generally well-tolerated; also recorded: generally well tolerated"},
      {"measurement": "overall incidence of patients who experienced adverse events", "setting": "[4]; Capsules 30 mg for 14 days, placebo 46%", "result": 53, "unit": "%"},
      {"measurement": "rate of discontinuation from dosing of study drug due to adverse events", "setting": "[4]; two patients, none with placebo", "result": 4.4, "unit": "%"}
    ]}
  ]
}
